Reference: PubChem BioAssay AID843 (The Scripps Research Institute Molecular Screening Center, 2007)
Active and inactive are the calls of the source. How the calls were made is not given here.

System: CRE-bla reporter cells, beta-lactamase FRET, activation
Assay: activators of CRE-BLA reporter, dose response, counter-screen for S1P2 agonist project, cell-based, beta-lactamase FRET (AID 843)

Compound	EC50
O=C1SC(c2ccccc2)=N/C1=C/c1ccco1	> 50 µM (inactive)
O=c1c(-c2nc3ccccc3s2)cccn1Cc1ccc(Cl)cc1	3.43 µM
CCOC(=O)c1cc2ccc(OC)c(OC)c2c(=O)s1	> 50 µM (inactive)
CCC(C)NC(=O)c1c(N)n(Cc2ccc3c(c2)OCO3)c2nc3ccccc3nc12 (configuration not stated)	5.7 µM
CC(C)CNC(=O)c1c(N)n(Cc2ccc3c(c2)OCO3)c2nc3ccccc3nc12	5.66 µM
c1ccc(-c2nc3ccccn3c2NCc2ccc3c(c2)OCO3)cc1	> 50 µM (inactive)
Cc1cccc2cc(C(c3nnnn3CC3CCCO3)N3CCc4ccccc4C3)c(=O)[nH]c12 (configuration not stated)	> 50 µM (inactive)
O=c1[nH]c(-c2cccs2)nc2ccccc12	> 50 µM (inactive)
Cc1ccc(Cn2cccc(-c3nc4ccccc4s3)c2=O)cc1	24 µM (inactive)
Clc1ccc(-c2ccc(/C=N/Nc3cc(N4CCOCC4)nc(N4CCOCC4)n3)o2)cc1	14.5 µM (inactive)
NS(=O)(=O)c1ccc(N2N=C(c3ccc(Br)cc3)CC2c2ccc(F)cc2)cc1 (configuration not stated)	2.69 µM
CCOC(=O)CN(C(=O)CSc1nnc(COc2ccc(OC)cc2)n1C)c1ccccc1	> 50 µM (inactive)
O=C1CCCC(O)=C1C=NCCc1ccccc1	> 50 µM (inactive)
Cc1cc(C)c(S(=O)(=O)Nc2ccc(O)cc2)cc1C	> 50 µM (inactive)
CCOc1cccc(OCCCCn2ccnc2)c1	> 50 µM (inactive)
Cc1cccn2c(=O)c3cc(C(=O)NCCc4ccccc4)c(=N)n(CCCn4ccnc4)c3nc12	10.2 µM (inactive)
Cc1cc(C)n2cc(CSc3nnnn3-c3ccc(Cl)cc3)nc2n1	> 50 µM (inactive)
O=c1c(-c2nc3ccccc3s2)cccn1Cc1ccccc1	6.82 µM
C=CCn1c(N)cc(=O)nc1SCC(=O)Nc1ccccc1	> 50 µM (inactive)
CCOC(=O)c1cc2ccc(OC(=O)c3ccco3)cc2oc1=O	8.74 µM
Cc1ccc(C2CC(=O)c3cnc(N4CCc5ccccc5C4)nc3C2)cc1 (configuration not stated)	> 50 µM (inactive)

Compound	EC50
COc1cc2c(cc1OC)C1=C(C#N)CCC(=O)N1CC2	2.96 µM
N#CCN1CCN(CC(=O)Nc2cccc3ccccc23)CC1	> 50 µM (inactive)
CCN(CC)c1ccc(NC(=O)Nc2ccccc2C(F)(F)F)cc1	> 50 µM (inactive)
CCOC(=O)c1c(C)n(C)c2ccc(OCC(O)Cn3nc(C)cc3C)cc12 (configuration not stated)	> 50 µM (inactive)
CCOCCCNc1nc(=S)[nH]c2cc(OC)c(OC)cc12	> 50 µM (inactive)
CN(C)CCCNS(=O)(=O)c1ccc(N2CCC(c3ccc(Cl)cc3)=N2)cc1	1.03 µM
CC(C)n1c(=N)c(C(=O)NCCc2ccccc2)cc2c(=O)n3ccccc3nc21	23.6 µM (inactive)
COc1ccc(Cn2c(-c3ccco3)nc3oc4cc(OC)ccc4c(=O)c3c2=O)cc1	> 50 µM (inactive)
O=c1c(-c2nc3ccccc3s2)cccn1Cc1ccc(Cl)c(Cl)c1	3.29 µM
O=C(NCc1ccco1)c1cc2ccc(O)cc2oc1=O	12.7 µM (inactive)
CC(C)CCNC(=O)c1c(N)n(Cc2ccc3c(c2)OCO3)c2nc3ccccc3nc12	6.45 µM
COc1cccc(CNC(=O)CN(c2cc(C)cc(C)c2)S(=O)(=O)c2c(C)noc2C)c1	> 50 µM (inactive)
c1ccc(OCCSc2nnnn2-c2ccccc2)cc1	> 50 µM (inactive)
CCCc1nn(-c2cc(Cl)ccc2OC)c2c1C(=O)CCC2	> 50 µM (inactive)
CCC(=O)c1cc2c(C)cc(=O)oc2c(C)c1O	> 50 µM (inactive)
NC(=O)c1ccc(NC(=O)C2CCCO2)cc1 (configuration not stated)	> 50 µM (inactive)
COc1ccccc1CNC(=O)c1c(N)n(CCCN2CCOCC2)c2nc3ccccc3nc12	22.9 µM (inactive)
O=S(=O)(Cc1ccc(Cl)cc1)NCC1CCCO1 (configuration not stated)	> 50 µM (inactive)
Cc1cc(C(=O)CN2C(=O)CCC2=O)c(C)n1Cc1ccccc1	> 50 µM (inactive)
O=C(NCC1(c2ccccc2)CCCC1)C(=O)N1CCOCC1	> 50 µM (inactive)
Cc1ccccc1-n1c(=O)c(C#N)cc2c(=O)n3ccccc3nc21	26.3 µM (inactive)

Compound	EC50
COc1cc2c(cc1OC)C1=C(C#N)CCC(=NC(=O)c3ccc(Cl)cc3)N1CC2	1.64 µM
Cc1cc(Br)ccc1OCCCCNCCO	> 50 µM (inactive)
Cc1cc(-c2nnc(SCC(=O)NC3CCCC3)o2)no1	> 50 µM (inactive)
Cc1ccc(CNC(=O)CCNC(=O)c2ccco2)cc1	> 50 µM (inactive)
O=C(Nc1ccccn1)Nc1cccs1	> 50 µM (inactive)
C(=C\c1ccccc1)/CSc1nnc(-c2ccccc2)n1Cc1ccco1	> 50 µM (inactive)
CCC(C)n1c(NC(=O)c2ccccc2)c(C#N)c2nc3ccccc3nc21 (configuration not stated)	2.95 µM
Oc1cccc(C(=S)N2CCN(Cc3ccccc3)CC2)c1	> 50 µM (inactive)
Nc1c(C(=O)NCCCc2ccccc2)c2nc3ccccc3nc2n1Cc1cccs1	5.9 µM
COCCNC(=O)CN1CCN(C(c2ccccc2)c2ccccc2)CC1	> 50 µM (inactive)
COC(=O)c1cn[nH]c1NC(=S)Nc1ccccc1C	> 50 µM (inactive)
COc1ccc(C(c2c[nH]c3ccccc23)c2c[nH]c3ccccc23)cc1O	> 50 µM (inactive)
O=C(Cc1c[nH]c2ccccc12)Nc1nc2ccccc2[nH]1	> 50 µM (inactive)
Clc1ccc(N2N=C(c3cccs3)CC2c2ccco2)cc1 (configuration not stated)	3.35 µM
Clc1ccc2nc(N3CCNCC3)nc(-c3ccccc3)c2c1	9.98 µM
O=S(=O)(c1ccc(N2CCC(c3ccc(Cl)cc3)=N2)cc1)N(CCO)CCO	9.11 µM
O=C(CCC(=O)N1CCc2ccccc21)Nc1ccccc1	> 50 µM (inactive)
Cc1cccc(C(=O)NC2CC3CCCC(C2)N3C(=O)NC2CCCCC2)c1 (configuration not stated)	> 50 µM (inactive)
COc1ccc2cc(S(=O)(=O)NCCCN3CCOCC3)ccc2c1	> 50 µM (inactive)
CS(=O)(=O)NCc1nnc(SCC(=O)NC2CCCCC2)n1-c1ccc(F)cc1	> 50 µM (inactive)
